Results reported in US5968923A, “(Azetidin-1-ylalkyl) lactams as tachykinin antagonists” (Pfizer Inc., priority 1994, dated 1999).

Legend:
NK2 receptor = target: T1, NK2 receptor (Oryctolagus cuniculus, UniProt P79218); assay: Antagonism of the contractile effects of [βAla^8 ] NKA(4-10) in the rabbit pulmonary artery (Method B); assay type: cell-based; details: agonist [βAla^8 ] NKA(4-10); for Kb: read-out: METHOD B (pA2) (converted)
T1 construct: antagonise the contractile effects of [βAla^8 ]; NKA(4-10) in the rabbit pulmonary artery; from tissue; host or cells: rabbit pulmonary artery
T1 sequence (P79218 1-384): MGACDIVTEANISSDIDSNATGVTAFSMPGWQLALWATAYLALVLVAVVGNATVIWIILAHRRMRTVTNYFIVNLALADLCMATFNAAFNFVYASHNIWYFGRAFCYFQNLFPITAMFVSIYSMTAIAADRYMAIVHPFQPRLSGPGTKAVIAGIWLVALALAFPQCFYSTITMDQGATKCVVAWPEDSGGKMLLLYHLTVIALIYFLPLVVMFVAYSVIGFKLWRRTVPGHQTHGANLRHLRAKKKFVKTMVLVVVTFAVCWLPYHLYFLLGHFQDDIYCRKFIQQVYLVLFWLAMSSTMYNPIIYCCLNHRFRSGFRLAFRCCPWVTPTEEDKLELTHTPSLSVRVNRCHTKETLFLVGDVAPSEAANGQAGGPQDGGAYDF
Procedure: The NK2 receptor antagonist activity of the compounds of the formula (I) can be tested, in vitro, by testing their ability to antagonise the contractile effects of the selective NK2 receptor agonist [βAla^8 ]NKA(4-10) in the rabbit pulmonary artery, using the method of Patacchini and Maggi, Eur. J. Pharmacol., 236, 31-37 (1993).
(§1) A representative selection of the compounds of the Examples were tested in vitro for their affinity to the human NK2 receptor by testing their ability to compete with [^125 I] NKA for binding to membranes prepared from Chinese hamster ovary cells expressing the cloned human NK2 receptor (Method A) and for their ability to antagonise the contractile effects of [βAla^8 ] NKA(4-10) in the rabbit pulmonary artery (Method B) by the methods described on pages 40 and 41 of the specification.

human NK2 receptor = target: T2, human NK2 receptor (Homo sapiens, UniProt P21452); assay: Competition with [^125 I] NKA for binding to membranes from Chinese hamster ovary cells expressing the cloned human NK2 receptor (Method A); details: Chinese hamster ovary cell membranes; for IC50: read-out: METHOD A (pIC50) (converted)
T2 construct: expressed in transfected cells; host or cells: Chinese hamster ovary (CHO) cells, membranes
T2 sequence (P21452 1-398): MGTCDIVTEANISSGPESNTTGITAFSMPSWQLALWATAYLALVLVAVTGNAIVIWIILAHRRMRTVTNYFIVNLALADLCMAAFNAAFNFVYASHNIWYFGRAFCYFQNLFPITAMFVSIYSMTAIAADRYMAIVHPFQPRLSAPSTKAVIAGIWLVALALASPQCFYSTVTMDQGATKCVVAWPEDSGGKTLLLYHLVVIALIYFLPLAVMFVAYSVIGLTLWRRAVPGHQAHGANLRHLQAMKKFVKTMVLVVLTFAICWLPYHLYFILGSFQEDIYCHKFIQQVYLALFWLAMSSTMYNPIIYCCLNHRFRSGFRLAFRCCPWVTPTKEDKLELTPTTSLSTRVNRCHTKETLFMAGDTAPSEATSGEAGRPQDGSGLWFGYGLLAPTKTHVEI
Procedure: The affinity of the compounds of formula (I) and their salts for the human NK2 receptor can be tested in vitro by testing their ability to compete with [^3 H] or [^125 I]NKA (neurokinin A) for binding to membranes prepared from Chinese hamster ovary cells expressing the cloned human NK2 receptor. In this method, washed Chinese hamster ovary cell membranes are prepared as described for the previous method where IM9 cells are used instead. The membranes are incubated (90 min, 25° C.) with [^3 H] NKA and with a range of concentrations of the test compound. Non-specific binding was determined in the presence of 10 μM NKA.
as §1

Kb (NK2 receptor) [nM]	IC50 (human NK2 receptor) [nM]	Structure (SMILES)	METHOD B (pA2) (NK2 receptor)	METHOD A (pIC50) (human NK2 receptor)
12.6	63.1	O=C1CCC(CCN2CC(N3CC[S+]([O-])CC3)C2)(c2ccc(F)c(F)c2)CN1Cc1ccccc1 (stereo not drawn) [Example 14]	–	–
5.01	1	O=C1CCC(CCN2CC(C(=O)N3CCCCC3)C2)(c2ccc(Cl)c(Cl)c2)CN1Cc1ccccc1 (stereo not drawn) [Example 31]	–	–
1.26	0.316	CC1CCCCC1CN1CC(CCN2CC(N3CCOCC3)C2)(c2ccc(Cl)c(Cl)c2)CCC1=O (stereo not drawn) [Example 73]	–	–
0.794	5.01	CC(c1ccccc1)N1CC(CCN2CC(N3CCOCC3)C2)(c2ccc(Cl)c(Cl)c2)CCC1=O (stereo not drawn) [Example 75 (enantiomeric pair A)]	–	–
2.51	6.31	CS(=O)(=O)N1CCN(C2CN(CCC3(c4ccc(Cl)cc4)CCC(=O)N(CC4CCCCC4)C3)C2)CC1 (stereo not drawn) [Example 89]	–	–
–	–	O=C1CCC(CCN2CC(N3[C@@H]4CC[C@H]3C[C@@H](O)C4)C2)(c2ccc(Cl)c(Cl)c2)CN1Cc1ccccc1 (stereo partly drawn) [Example 104, 1-Benzyl-5-(3,4-dichlorophenyl)-5-(2-[3-(endo-3-hydroxy-8-azabicyolo[3,2,1]oct-8-yl)azetidin-1-yl]ethyl)-2-piperidone]	9.2	8.8
